Here are results for five compounds from patent US8053583B2, “Anti-cancer compound and manufacturing method thereof” (National Defense Medical Center, priority 2008, dated 2011).

SMILES strings stand for the structures.

The test system of series [1] is SVG p12 (human brain astroglia) cells. Description: MTT colorimetric assay, normal SVG p12 cells. As to conditions: conc. 10 μM, 46 hours with drug, then 2 hours MTT, ratio to control group without drug. In general terms: Tetrazolium assays rely on reduction of a dye to a coloured formazan, in cell work by metabolically active cells.
From the text: (§1) MTT (tetrazole) assay used to determine tumor viability is based on measurement of the activity of dehydrogenase to determine cell growth conditions. In live cells, dehydrogenase in active mitochondria converts yellow MTT [3-(4,5-dimethylthiazol-2-yl)-2,5-diphenyltetra zolium bromide] into purple formazan on the reductive cleavage of its tetrazolium ring. The formazan crystal is examined under the microscope. While the mitochondria in dead cells are without active dehydrogenase, no crystal is generated and the color remains yellow. After adding MTT into cell cultures and reacting for 2 hours, the amount of generated formazan precipitate is proportional to total amount of dehydrogenase. Removing the culture medium, add DMSO to dissolve the purple formazan precipitate. Then measure the absorbance of the precipitate by is measured by the spectrophotometer at 560/670 nm so as to learn inhibition effect of drugs acted on normal cells and tumor cells.
(§2) GBM 8401, GBM 8901 (human brain glioblastoma) and SVG p12 (human brain astroglia)cells line are selected to be used in 96 well petri dishes. Each well is filled into the same amount of cells-about 5000 cells per well. After being cultured for 24 hours and cells anchor/attach, the 96 wells are divided into two groups-an experimental group and a control group containing no samples. The samples are diluted into 10 μg/mL by culture medium. Take 200 μL of each sample and add into the experimental group and the control group is added with 200 μL culture medium without samples. After 46 hours of culture, each well is added with 10 μL MTT solution, incubate cells at 37° C., 5% CO2 for 2 hours.
(§3) Then each well is added with 100 μL, dissolving formazan. Shaking for 10 minutes and measure the absorbance at 560/670 nm of the sample by the spectrometer. The data of the experimental group is divided by the data of the control group to get the estimated cell viability.
(§4) Three cell lines-GBM 8401, GBM 8901, SVG p12 (normal) are used in cytotoxicity tests of 1,8-bis-substituted amidoanthraquinone. After reacting with the drug for 46 hours, the cells are reacted with certain amount of MTT solution. After 2 hours, DMSO is used to dissolve formazan and O.D. (optical density) at 560/670 nm is measured. Then calculate the radios of the experimental groups (with drugs) to the control groups (without drugs).
The test system of series [2] is GBM 8901 (human brain glioblastoma) cells. Nature of the series: MTT colorimetric assay, GBM 8901 cells. The settings on record: 46 hours with drug, then 2 hours MTT, ratio to control group without drug; for viability at 10 µM: Homo sapiens, read-out: Cell viability (%) GBM 8901, conc. 10 μM.
From the text: as §1, §2, §3, §4
Series [3] relates to GBM 8401 (human brain glioblastoma) cells. Nature of the series: MTT colorimetric assay, GBM 8401 cells. The settings on record: 46 hours with drug, then 2 hours MTT, ratio to control group without drug; for Cell viability (%) GBM 8401: conc. 10 μM; for viability at 10 µM: Homo sapiens, read-out: Cell viability (%) GBM 8401, conc. 10 μM.
From the text: as §1, §2, §3, §4
The nature of series [4]: MTT colorimetric assay, normal SVG p12 cells. The settings on record: human, SVG p12 cells (normal human brain astroglia), Cell viability (%) SVG p12, conc. 10 μM, 46 hours with drug, then 2 hours MTT, ratio to control group without drug.
From the text: as §1, §2, §3, §4

The term viability denotes a read-out of living cells in per cent, often relative to untreated cells. For `COC(=O)[C@H](C)NCC(=O)Nc1cccc2c1C(=O)c1c(NC(=O)CN[C@H](C)C(=O)OC)cccc1C2=O` [Compound 3h, (L)-1,8-Bis[2-(alalinemethyl ester)acetamido]anthraquinone], in series [1], the “Cell viability (%) SVG p12” value amounted to 128 ± 34%. In series [2], the viability at 10 µM worked out at 100 ± 24%. Besides, the “Cell viability (%) GBM 8401” value in series [3] is 158 ± 3%.

`COC(=O)[C@H](NCC(=O)Nc1cccc2c1C(=O)c1c(NC(=O)CN[C@@H](C(=O)OC)C(C)C)cccc1C2=O)C(C)C` [Compound 3e, (D)-1,8-Bis[2-(valinemethyl ester)acetamido]anthraquinone]: in series [1], the “Cell viability (%) SVG p12” value was determined as 138 ± 10%. For the same compound, the “Cell viability (%) GBM 8901” value in series [2] (conc. 10 μM) was found to be 88 ± 10%. Also, the “Cell viability (%) GBM 8401” value in series [3] was 153 ± 32%.

Broadly, the melting point is the temperature, or range, at which the solid turns liquid. On to `COC(=O)[C@H]1CCCN1CC(=O)Nc1cccc2c1C(=O)c1c(NC(=O)CN3CCC[C@H]3C(=O)OC)cccc1C2=O` [Compound 3c, 1,8-Bis[2-(prolinemethyl ester)acetamido]anthraquinone], for which the melting point was 170 to 171 °C. In series [4], the viability at 46 h, 10 μM is 121 ± 5%. The viability at 10 µM in series [2] is 96 ± 3%. In addition, in series [3], the viability at 10 µM was determined as 83 ± 15%.

Compound `CN(C)CCC(=O)Nc1cccc2c1C(=O)c1c(NC(=O)CCN(C)C)cccc1C2=O` [Compound 4f] returned a melting point of 116 to 117 °C. The viability at 46 h, 10 μM in series [4] stood at 4 ± 3%. Moreover, in series [2], the viability at 10 µM is 7 ± 3%. In series [3], the viability at 10 µM was 3%.

For `COC(=O)CNCC(=O)Nc1cccc2c1C(=O)c1c(NC(=O)CNCC(=O)OC)cccc1C2=O` [Compound 3a, 1,8-Bis[2-(glycinmethyl ester)acetamido]anthraquinone], the melting point was 173 to 174 °C. In addition, the viability at 46 h, 10 μM in series [4] was determined as 93 ± 6%. Also, in series [2], the viability at 10 µM turned out to be 104 ± 2%. In addition, in series [3], the viability at 10 µM is 95 ± 10%.
